Reference: publication PMC4941420, “A Rational Approach for the Identification of Non-Hydroxamate HDAC6-Selective Inhibitors” (Scientific Reports, 2016)
Blank lines part the entries; values can stand above or below the molecule they belong to.

What was measured:
HDAC6 [1] = experiment: HDAC ChEMBL dataset / literature, enzymatic IC50 HDAC6; format: biochemical; conditions: ratio of ChEMBL IC50 values
HDAC6 [2] = biological target: T1, HDAC6 (Homo sapiens, UniProt Q9UBN7); experiment: In vitro enzymatic assay HDAC6 (Fluor de Lys); format: biochemical; conditions: for HDAC6 % of inhibition at 100 µM / inhibition at 100 µM: mean ± SD (n=3); for inhibition at 100 µM: read-out: HDAC6 % of inhibition at 100 µM; for IC50: average of at least 2 independent experiments in duplicates ± SEM
T1 construct: purchased Sigma Aldrich or Reaction Biology Corporation
T1 sequence (Q9UBN7 1-1215): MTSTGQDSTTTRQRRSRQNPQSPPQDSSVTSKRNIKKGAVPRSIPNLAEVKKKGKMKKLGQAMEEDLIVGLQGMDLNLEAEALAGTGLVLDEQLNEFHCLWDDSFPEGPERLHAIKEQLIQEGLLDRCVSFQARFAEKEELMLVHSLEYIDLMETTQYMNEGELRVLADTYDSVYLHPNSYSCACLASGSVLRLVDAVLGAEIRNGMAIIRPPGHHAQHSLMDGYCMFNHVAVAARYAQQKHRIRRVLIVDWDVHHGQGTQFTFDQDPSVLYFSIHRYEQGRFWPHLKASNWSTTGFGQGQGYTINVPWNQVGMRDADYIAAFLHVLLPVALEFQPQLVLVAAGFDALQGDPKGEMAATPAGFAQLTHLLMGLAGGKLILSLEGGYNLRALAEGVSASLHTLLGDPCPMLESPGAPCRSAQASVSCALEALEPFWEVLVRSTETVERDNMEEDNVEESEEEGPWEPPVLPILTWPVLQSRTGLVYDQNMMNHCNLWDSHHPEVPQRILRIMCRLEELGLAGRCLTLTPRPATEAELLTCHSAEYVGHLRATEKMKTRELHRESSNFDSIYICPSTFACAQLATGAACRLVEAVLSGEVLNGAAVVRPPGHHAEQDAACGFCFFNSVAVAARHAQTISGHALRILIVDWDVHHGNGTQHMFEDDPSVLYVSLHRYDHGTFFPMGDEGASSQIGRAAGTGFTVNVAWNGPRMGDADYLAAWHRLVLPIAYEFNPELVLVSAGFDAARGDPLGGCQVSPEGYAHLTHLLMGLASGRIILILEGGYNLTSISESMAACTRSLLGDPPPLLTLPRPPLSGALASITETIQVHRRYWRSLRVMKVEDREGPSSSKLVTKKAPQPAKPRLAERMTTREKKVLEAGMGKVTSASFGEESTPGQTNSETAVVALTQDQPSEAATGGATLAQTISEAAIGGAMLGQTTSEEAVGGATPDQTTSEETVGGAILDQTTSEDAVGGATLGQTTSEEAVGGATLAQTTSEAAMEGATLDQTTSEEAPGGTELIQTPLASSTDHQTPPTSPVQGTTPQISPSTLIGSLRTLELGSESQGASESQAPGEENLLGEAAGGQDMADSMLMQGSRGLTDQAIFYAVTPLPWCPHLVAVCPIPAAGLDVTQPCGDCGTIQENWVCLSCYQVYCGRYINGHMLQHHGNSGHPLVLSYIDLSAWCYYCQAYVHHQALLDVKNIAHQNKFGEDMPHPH

HDAC8 = biological target: T2, HDAC8 (Homo sapiens, UniProt Q9BY41); experiment: In vitro enzymatic assay HDAC8 (Fluor de Lys); format: biochemical; conditions: average of at least 2 independent experiments in duplicates ± SEM
T2 construct: purchased Sigma Aldrich or Reaction Biology Corporation
T2 sequence (Q9BY41 1-377): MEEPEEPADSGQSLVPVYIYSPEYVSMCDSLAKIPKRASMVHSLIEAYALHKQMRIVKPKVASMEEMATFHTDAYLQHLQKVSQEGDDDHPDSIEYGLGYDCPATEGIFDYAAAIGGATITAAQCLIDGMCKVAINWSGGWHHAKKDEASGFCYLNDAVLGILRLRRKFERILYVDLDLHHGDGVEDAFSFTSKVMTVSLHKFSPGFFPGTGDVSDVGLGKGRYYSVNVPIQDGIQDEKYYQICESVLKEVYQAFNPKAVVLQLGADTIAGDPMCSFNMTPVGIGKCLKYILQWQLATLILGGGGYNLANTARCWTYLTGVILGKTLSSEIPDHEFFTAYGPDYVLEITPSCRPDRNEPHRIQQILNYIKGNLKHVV

HDAC4 = biological target: T3, HDAC4 (Homo sapiens, UniProt P56524); experiment: In vitro enzymatic assay HDAC4 (Fluor de Lys); format: biochemical; conditions: average of at least 2 independent experiments in duplicates ± SEM
T3 construct: purchased Sigma Aldrich or Reaction Biology Corporation

[3] = system: class I HDACs (HeLa nuclear extracts); experiment: HDAC activity of HeLa nuclear extracts (Fluor de Lys); format: biochemical, human; conditions: 100 μM, average of at least 3 independent experiments in duplicates (Table 1)
HDAC2 = biological target: T4, HDAC2 (Homo sapiens, UniProt Q92769); experiment: In vitro enzymatic assay HDAC2 (Fluor de Lys); format: biochemical; conditions: average of at least 2 independent experiments in duplicates ± SEM
T4 construct: purchased Sigma Aldrich or Reaction Biology Corporation

[4] = Solubility remarks during testing; format: physicochemical; conditions: tested at 100 µM in HDAC assay buffer

T3 sequence (P56524 whole entry): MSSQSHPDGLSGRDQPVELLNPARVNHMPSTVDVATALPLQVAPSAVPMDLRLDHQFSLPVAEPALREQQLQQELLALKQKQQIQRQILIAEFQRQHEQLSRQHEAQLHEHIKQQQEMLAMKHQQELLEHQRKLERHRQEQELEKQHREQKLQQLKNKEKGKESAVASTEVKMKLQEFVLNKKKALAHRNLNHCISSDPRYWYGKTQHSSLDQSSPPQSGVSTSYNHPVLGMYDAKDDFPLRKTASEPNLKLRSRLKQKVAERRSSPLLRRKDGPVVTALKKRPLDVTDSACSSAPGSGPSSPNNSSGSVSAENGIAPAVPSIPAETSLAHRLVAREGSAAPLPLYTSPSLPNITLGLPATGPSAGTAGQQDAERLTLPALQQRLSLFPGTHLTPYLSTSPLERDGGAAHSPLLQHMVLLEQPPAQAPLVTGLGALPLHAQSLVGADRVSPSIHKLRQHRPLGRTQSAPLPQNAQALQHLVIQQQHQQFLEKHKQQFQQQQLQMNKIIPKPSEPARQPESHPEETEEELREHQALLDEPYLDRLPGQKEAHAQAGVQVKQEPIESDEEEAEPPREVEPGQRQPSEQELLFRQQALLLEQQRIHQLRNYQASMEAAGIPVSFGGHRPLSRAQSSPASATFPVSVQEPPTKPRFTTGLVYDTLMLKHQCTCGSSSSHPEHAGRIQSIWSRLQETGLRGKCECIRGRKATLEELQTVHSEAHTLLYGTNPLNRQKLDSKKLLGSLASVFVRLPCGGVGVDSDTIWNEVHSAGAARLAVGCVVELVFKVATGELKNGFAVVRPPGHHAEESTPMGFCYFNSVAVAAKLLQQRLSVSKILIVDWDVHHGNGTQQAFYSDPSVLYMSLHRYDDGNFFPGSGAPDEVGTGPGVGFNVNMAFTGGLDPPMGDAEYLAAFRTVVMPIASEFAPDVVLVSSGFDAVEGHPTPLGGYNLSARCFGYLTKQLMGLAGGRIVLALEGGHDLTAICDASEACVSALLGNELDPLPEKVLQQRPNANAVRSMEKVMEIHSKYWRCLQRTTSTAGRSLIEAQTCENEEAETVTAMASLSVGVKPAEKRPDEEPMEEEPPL
T4 sequence (Q92769 whole entry): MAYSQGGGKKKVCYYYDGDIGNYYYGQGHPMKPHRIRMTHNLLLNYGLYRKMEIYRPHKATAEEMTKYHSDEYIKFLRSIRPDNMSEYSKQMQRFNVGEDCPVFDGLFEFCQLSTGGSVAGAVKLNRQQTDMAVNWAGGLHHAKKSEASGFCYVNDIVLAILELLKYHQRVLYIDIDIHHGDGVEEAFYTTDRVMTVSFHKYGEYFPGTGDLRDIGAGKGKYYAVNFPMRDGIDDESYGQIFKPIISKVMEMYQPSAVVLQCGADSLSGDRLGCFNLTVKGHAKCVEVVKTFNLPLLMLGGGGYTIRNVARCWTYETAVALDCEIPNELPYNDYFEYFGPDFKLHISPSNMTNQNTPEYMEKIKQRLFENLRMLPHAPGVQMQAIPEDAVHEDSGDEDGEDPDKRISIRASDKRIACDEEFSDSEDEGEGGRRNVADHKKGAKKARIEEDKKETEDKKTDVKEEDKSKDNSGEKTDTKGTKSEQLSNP

SMILES: O=C(NO)c1ccc(C(=O)NCCc2ccccc2)cc1 [CHEMBL2333340]
Isoform selectivity (ratio) HDAC2/HDAC6 (HDAC6 [1]): 151.75 | Isoform selectivity (ratio) HDAC4/HDAC6 (HDAC6 [1]): 8332.5 | Isoform selectivity (ratio) HDAC8/HDAC6 (HDAC6 [1]): 287.5

SMILES: Cc1nnn(C23CC4CC(CC(C(=O)NN)(C4)C2)C3)n1 [AK-19]
HDAC6 % of inhibition at 100 µM (HDAC6 [2]): 18.1 ± 4.0%

SMILES: NNC(=O)c1ccc(Cn2cc(Cl)cn2)cc1 [AK-24]
IC50 (HDAC8): 86.9 ± 0.7 µM | inhibition at 100 µM (HDAC6 [2]): 63.1 ± 12.2% | IC50 (HDAC6 [2]): 74.9 ± 5.2 µM | IC50 (HDAC4): > 300 µM | HeLa % of inhibition at 100 μM [3]: 33.3 ± 5.4% | IC50 (HDAC2): > 200 µM

SMILES: CC1(C)Cc2c(c(N3CCOCC3)nc3sc(C(=O)NN)cc23)CO1 [AK-8]
solubility remark in HDAC6 screening [4]: Solubility issues | HDAC6 % of inhibition at 100 µM (HDAC6 [2]): 32.5 ± 8.8%

SMILES: N/N=C1\CCCc2c1[nH]c1ccc(C(=O)NN)cc21 [AH-1]
HDAC6 % of inhibition at 100 µM (HDAC6 [2]): 26.9 ± 6.1%

SMILES: COc1ccccc1OCc1ccc(C(=O)NN)cc1 [AK-5]
IC50 (HDAC8): 130 ± 9 µM | inhibition at 100 µM (HDAC6 [2]): 64.4 ± 1.3% | IC50 (HDAC6 [2]): 45.6 ± 1.5 µM | IC50 (HDAC4): > 300 µM | HeLa % of inhibition at 100 μM [3]: 5.8 ± 1.3% | IC50 (HDAC2): > 200 µM

SMILES: NS(=O)(=O)c1ccc(N2N=C(C(F)(F)F)/C(=C/c3ccc(-c4ccc(Cl)c(Cl)c4)o3)C2=O)cc1 [AN-1]
HDAC6 % of inhibition at 100 µM (HDAC6 [2]): -43.0 ± 11.8%

SMILES: NNC(=O)c1cc2nc(-c3cccs3)cc(C(F)(F)F)n2n1 [AK-7]
HDAC6 % of inhibition at 100 µM (HDAC6 [2]): 31.1 ± 0.5% Self-fluorescence

SMILES: Cn1cccc1C(=O)N1Cc2ccc(C(=O)NO)cc2C1 [CHEMBL2431906]
Isoform selectivity (ratio) HDAC2/HDAC6 (HDAC6 [1]): 169.2 | Isoform selectivity (ratio) HDAC4/HDAC6 (HDAC6 [1]): 84.6

SMILES: O=C(CSc1nc2cc(Cl)c3cccnc3c2o1)c1ccc(O)c(O)c1 [AO-1]
IC50 (HDAC8): 35.1 ± 1.1 µM | inhibition at 100 µM (HDAC6 [2]): 66.1 ± 6.9% | selectivity index (SI) with respect to HDAC2 (HDAC6 [2]; HDAC6 versus HDAC2): > 50 | IC50 (HDAC6 [2]): 16.9 ± 4.9 µM | IC50 (HDAC4): 73.5 ± 6 µM | HeLa % of inhibition at 100 μM [3]: 20.7 ± 4.0% | IC50 (HDAC2): > 1000 µM

SMILES: Cc1c(C)n(Cc2ccccc2)c2ccc(C(=O)NN)cc12 [AK-12]
HDAC6 % of inhibition at 100 µM (HDAC6 [2]): 28.2 ± 16.7%

SMILES: Cc1nn(Cc2ccc(C(=O)NN)cc2)c(C)c1Cl [AK-2]
IC50 (HDAC8): 140 ± 11.5 µM | inhibition at 100 µM (HDAC6 [2]): 58 ± 1.5% | IC50 (HDAC6 [2]): 47.9 ± 4.7 µM | IC50 (HDAC4): > 300 µM | HeLa % of inhibition at 100 μM [3]: 10.0 ± 2.0% | IC50 (HDAC2): > 200 µM

The next lines start with results.

HDAC6 % of inhibition at 100 µM (HDAC6 [2]): 23.7 ± 9.3%
SMILES: NNC(=O)CC12CC3CC(C1)CC(n1ncnn1)(C3)C2 [AK-13]

HDAC6 % of inhibition at 100 µM (HDAC6 [2]): 20.2 ± 10.9%
SMILES: CC(C)(C)C1CCC(C(=O)NN)CC1 (centres unmarked) [AK-23]

HDAC6 % of inhibition at 100 µM (HDAC6 [2]): 16.3 ± 0. %
SMILES: C=CCn1c2ccccc2c2nnc(SC(CC)C(=O)Nc3ccc(S(N)(=O)=O)cc3)nc21 (centres unmarked) [AG-3]

IC50 (HDAC8): 74.9 ± 0.8 µM | inhibition at 100 µM (HDAC6 [2]): 67.9 ± 7.8% | IC50 (HDAC6 [2]): 30.9 ± 2.1 µM | IC50 (HDAC4): > 300 µM | IC50 (HDAC2): 201.7 ± 1.9 µM
SMILES: NNC(=O)c1ccc(Cn2cc(Br)cn2)cc1 [AK-21]
HeLa % of inhibition at 100 μM [3]: 14.7 ± 11.6%

HDAC6 % of inhibition at 100 µM (HDAC6 [2]): 15.3 ± 0.5%
SMILES: NNC(=O)c1cccc(COc2cc(Cl)ccc2Cl)c1 [AK-6]

HDAC6 % of inhibition at 100 µM (HDAC6 [2]): 5.3 ± 19.9%
SMILES: Cc1nn(Cc2ccc(C(=O)NN)o2)c(C)c1Cl [AK-11]

HDAC6 % of inhibition at 100 µM (HDAC6 [2]): 29.1 ± 10.3%
SMILES: NNC(=O)c1ccc(COc2ccc(Cl)cc2Cl)o1 [AK-25]

HDAC6 % of inhibition at 100 µM (HDAC6 [2]): -3.3 ± 5.4%
SMILES: Cc1cccc(Cn2nnc3c(=O)n(CC(=O)Nc4ccc(S(N)(=O)=O)cc4)cnc32)c1 [AO-2]
